{
  "source": "patent US20120264231A1",
  "about": "“ASSAY FOR ORAI CALCIUM CHANNEL REGULATORS” (IMMUNE DISEASE INSTITUTE, INC., priority 2009, published 2012)",
  "assay": "Cameleon intravesicular Ca^2+ assay, control vesicles",
  "format": "biochemical, S cerevisiae",
  "settings": "ionomycin 20 μM",
  "experimental": "In complementary measurements, vesicular Ca^2+ was monitored directly by coexpressing ORAI1 with the Ca^2+ sensor D3 cpV or D4 cpV53 fused to the α-mating factor secretion signal to target the sensor to the vesicles. Vesicles that had incorporated ORAI1 were isolated from sec6-4 yeast incubated at the restrictive temperature and were diluted into assay buffer.\nS cerevisiae strain NY17 featuring the temperature-sensitive sec6-4 mutation was used for protein expression and purification of secretory vesicles as described (Nakamoto, R. K., et al., J Biol Chem 266, 7940-7949 (1991); Coury, L. A., et al., Methods Enzymol 306, 169-186 (1999)). Cells were grown to midlog phase at 25° C. in uracil-deficient synthetic complete medium containing glucose, which was subsequently exchanged for galactose to induce transgene expression over a period of 8 hours. The temperature was then switched to 37° C. for 3 hours to force intracellular accumulation of secretory vesicles. […] Myc-tagged ORAI1 was detected in Western blots using the murine anti-Myc monoclonal antibody 9E10.\nChanges in intravesicular [Ca^2+] were monitored with the modified Ca^2+ sensors cameleon D3 cpV and D4 cpV53. […] Emission spectra were recorded from 450-560 nm with excitation set at 410 nm, with a 5-8 nm slitwidth for both excitation and emission, and corrected by subtracting the spectrum obtained with buffer alone. […]",
  "data": [
    {"smiles": "C[C@H](CCC(=O)O)C[C@H](C)C[C@H](C)C(=O)/C=C(\\O)[C@H](C)C[C@H](C)C/C=C/[C@@H](C)[C@@H](O)[C@@H](C)[C@@H](O)C[C@@H]1CC[C@@](C)([C@H]2CC[C@@](C)([C@@H](C)O)O2)O1", "note": "[ionomycin, reference compound]", "values": [
      {"measurement": "Ca^2+ release from control vesicles (cameleon)", "result": "effective in releasing Ca^2+"}
    ]}
  ]
}
